{
  "source": "paper PMC7617869",
  "about": "“Molecular glues that inhibit deubiquitylase activity and inflammatory signaling” (Nature Structural & Molecular Biology, 2025)",
  "key": {"[1]": {"tested_on": "trypsin", "assay": "Trypsin IQF diubiquitin selectivity assay", "format": "biochemical", "settings": "for Normalised V0: Fig. 1e, Trypsin; for TRYPSIN, normalised activity (Ext. 1a): two replicate columns", "description": "BRISC DUB activity was measured at room temperature using 1 nM BRISC and 500 nM IQF diubiquitin K63 substrate (LifeSensors, DU6303) in the presence of DMSO and compounds at 10 μM (final concentrations). Assays were performed in 384-well black flat-bottom low-flange plates (Corning, 35373) in buffer containing 50 mM HEPES–NaOH pH 7.0, 100 mM NaCl, 1 mg ml^−1 BSA, 1 mM DTT and 0.03% v/v Brij-35. Then, 10 μl of twofold concentrated enzyme stock was dispensed, followed by transfer of 200 nl of compounds (1 mM stock) using a 384-pin tool and a 15-min incubation at room temperature. Then, 10 μl of twofold concentrated substrate stock was added and the reaction was monitored by measuring fluorescence intensity (excitation, 540 nm; emission, 580 nm) after 20-min incubation at room temperature and ~50% of substrate was consumed. Orthogonal assays for verification of H20 and P12 hit compounds using USP2 (100 nM) and trypsin (125 nM) were performed in identical conditions.\nIQF assays were performed in DUB reaction buffer containing 50 mM HEPES–NaOH pH 7.0, 100 mM NaCl, 0.1 mg ml^−1 BSA, 1 mM DTT and 0.03% v/v Brij-35. […] The final concentration of BRISC WT, all BRISC mutants, HsBRISCΔLoop, MmBRISC and DrBRISCΔNΔC was 1 nM. Other enzymes were tested at the following concentrations: 5 nM ARISC (FL), 10 nM CfBRISCΔNΔC, 250 nM AMSH* (ref. [43]), 500 nM USP2 and 1 μM trypsin (Sigma, 9002-07-7). For Michaelis–Menten experiments, 1 nM BRISC with 0–1 μM IQF K63-linked diubiquitin substrate was used. Michaelis–Menten analyses and Lineweaver–Burk plots were calculated using GraphPad Prism (version 9.0).\nTo assess enzymatic activity, BRISC complexes were diluted to concentrations between 1 nM and 50 nM. […] Then, 20-μl enzyme reactions were carried out in 384-well black flat-bottom low-flange plates (Corning, 35373). DUB activity was measured using IQF K63-linked diubiquitin (LifeSensors, DU6303) at 50 nM. Cleaved diubiquitin was monitored by measuring fluorescence intensity (excitation, 544 nm; emission, 575 nm; dichroic mirror, 560 nm). Fluorescence intensity was measured every minute for 30 min at 30 °C. Fluorescence intensity units were plotted against time to generate a linear reaction progress curve, where the initial velocity (V0) corresponds to the gradient of the curve (typically achieved within 15 min). IC50 values were calculated using the GraphPad Prism (version 9.0) built-in dose–response equation for inhibitor concentration versus response (variable slope)."}, "[2]": {"target": "T1, panel of 48 purified DUBs (Homo sapiens, UniProt Q70CQ3)", "T1 construct": "purchased Ubiquigent (DUBprofiler service)", "assay": "DUB selectivity profiling (DUBprofiler, ubiquitin–rhodamine(110)–glycine)", "format": "biochemical", "settings": "DUB USP30; screening concentration 5 μM", "description": "(§1) Biochemical selectivity profiling (DUBprofiler) was performed by Ubiquigent with a panel of 48 purified DUBs and ubiquitin–rhodamine(110)–glycine as a fluorescent substrate."}, "[3]": {"target": "T2, panel of 48 purified DUBs (Homo sapiens, UniProt Q93009)", "T2 construct": "purchased Ubiquigent (DUBprofiler service)", "assay": "DUB selectivity profiling (DUBprofiler, ubiquitin–rhodamine(110)–glycine)", "format": "biochemical", "settings": "DUB USP7; screening concentration 5 μM; 5 µM", "description": "as §1"}, "[4]": {"target": "T3, panel of 48 purified DUBs (Homo sapiens, UniProt Q96DC9)", "T3 construct": "purchased Ubiquigent (DUBprofiler service)", "assay": "DUB selectivity profiling (DUBprofiler, ubiquitin–rhodamine(110)–glycine)", "format": "biochemical", "settings": "DUB OTUB2; screening concentration 5 μM; 5 µM", "description": "as §1"}, "[5]": {"target": "T4, panel of 48 purified DUBs (Homo sapiens, UniProt Q96G74)", "T4 construct": "purchased Ubiquigent (DUBprofiler service)", "assay": "DUB selectivity profiling (DUBprofiler, ubiquitin–rhodamine(110)–glycine)", "format": "biochemical", "settings": "DUB OTUD5(p177S); screening concentration 5 μM; 5 µM", "description": "as §1"}, "[6]": {"target": "T5, panel of 48 purified DUBs (Homo sapiens, UniProt Q9NQC7)", "T5 construct": "purchased Ubiquigent (DUBprofiler service)", "assay": "DUB selectivity profiling (DUBprofiler, ubiquitin–rhodamine(110)–glycine)", "format": "biochemical", "settings": "DUB CYLD; screening concentration 5 μM; 5 µM", "description": "as §1"}, "[7]": {"tested_on": "ISG expression in MCF10A Cas9 cells expressing BRCC45 R137A", "assay": "MCF10A BRCC45 R137A ISG expression (RT–qPCR)", "format": "cell-based, human", "settings": "hIFNα2 75 ng/ml, 2.5 μM, 4 h"}},
  "note": "Several values for one entry are separate records, joined by “and”; a condition that tells them apart may be missing. Equal entries are not always repeated.",
  "data": [
    {"smiles": "O=C(NC1CCNCC1)c1nn(C(=O)c2c(Cl)cccc2Cl)cc1NC(=O)c1c(Cl)cccc1Cl", "note": "[JMS-175-2]", "values": [
      {"measurement": "Normalised V0", "setting": "[1]; JMS-175-2 0.02 μM", "result": "1.129 and 1.522 and 0.9592"},
      {"measurement": "Normalised V0", "setting": "[1]; JMS-175-2 0.0399999 μM", "result": "1.059 and 1.128 and 0.891"},
      {"measurement": "Normalised V0", "setting": "[1]; JMS-175-2 0.0599997 μM", "result": "1.053 and 1.443 and 1.028"},
      {"measurement": "Normalised V0", "setting": "[1]; JMS-175-2 0.0799994 μM", "result": "1.079 and 1.241 and 1.027"},
      {"measurement": "Normalised V0", "setting": "[1]; JMS-175-2 0.119998 μM", "result": "1.132 and 1.572 and 1.058"},
      {"measurement": "Normalised V0", "setting": "[1]; JMS-175-2 0.199996 μM", "result": "1.063 and 1.165 and 0.9014"},
      {"measurement": "Normalised V0", "setting": "[1]; JMS-175-2 0.499975 μM", "result": "1.046 and 1.263 and 0.9518"},
      {"measurement": "Normalised V0", "setting": "[1]; JMS-175-2 0.799936 μM", "result": "1.084 and 1.3 and 1.031"},
      {"measurement": "Normalised V0", "setting": "[1]; JMS-175-2 1.25984 μM", "result": "1.117 and 1.247 and 0.9792"},
      {"measurement": "Normalised V0", "setting": "[1]; JMS-175-2 1.9996 μM", "result": "1.2322 and 1.34 and 0.9526"},
      {"measurement": "Normalised V0", "setting": "[1]; JMS-175-2 3.159 μM", "result": "1.104 and 1.275 and 0.8695"},
      {"measurement": "Normalised V0", "setting": "[1]; JMS-175-2 5.19739 μM", "result": "1.019 and 1.261 and 1.016"},
      {"measurement": "Normalised V0", "setting": "[1]; JMS-175-2 7.99364 μM", "result": "1.1 and 1.362 and 0.8881"},
      {"measurement": "Normalised V0", "setting": "[1]; JMS-175-2 12.7839 μM", "result": "1.055 and 1.3161 and 0.9778"},
      {"measurement": "Normalised V0", "setting": "[1]; JMS-175-2 19.96 μM", "result": "1.0605 and 1.284 and 0.9014"},
      {"measurement": "Normalised V0", "setting": "[1]; JMS-175-2 31.4999 μM", "result": "1.012 and 1.285 and 0.8918"},
      {"measurement": "Normalised V0", "setting": "[1]; JMS-175-2 50.147 μM", "result": "0.965 and 1.142 and 0.7769"},
      {"measurement": "Normalised V0", "setting": "[1]; JMS-175-2 79.7601 μM", "result": "0.9096 and 1.115 and 0.8428"},
      {"measurement": "Normalised V0", "setting": "[1]; JMS-175-2 125.99 μM", "result": "0.8068 and 0.9447 and 0.6574"},
      {"measurement": "Normalised V0", "setting": "[1]; JMS-175-2 199.922 μM", "result": "0.6351 and 0.815 and 0.623"},
      {"measurement": "TRYPSIN, normalised activity (Ext. 1a)", "setting": "[1]; log [compound (μM)] 0.1938, listed as H20", "result": "1.0307 and 1.0157"},
      {"measurement": "TRYPSIN, normalised activity (Ext. 1a)", "setting": "[1]; log [compound (μM)] 0.4949, listed as H20", "result": "1.0959 and 1.0924"},
      {"measurement": "TRYPSIN, normalised activity (Ext. 1a)", "setting": "[1]; log [compound (μM)] 0.7959, listed as H20", "result": "1.0739 and 0.9776"},
      {"measurement": "TRYPSIN, normalised activity (Ext. 1a)", "setting": "[1]; log [compound (μM)] 1.0969, listed as H20", "result": "1.0282 and 0.9851"},
      {"measurement": "TRYPSIN, normalised activity (Ext. 1a)", "setting": "[1]; log [compound (μM)] 1.3979, listed as H20", "result": "0.9308 and 0.8423"},
      {"measurement": "TRYPSIN, normalised activity (Ext. 1a)", "setting": "[1]; log [compound (μM)] 1.6990, listed as H20", "result": "0.8444 and 0.8335"},
      {"measurement": "TRYPSIN, normalised activity (Ext. 1a)", "setting": "[1]; log [compound (μM)] 2.0000, listed as H20", "result": "0.8160 and 0.6662"},
      {"measurement": "TRYPSIN, normalised activity (Ext. 1a)", "setting": "[1]; log [compound (μM)] 2.3010, listed as H20", "result": "0.6941 and 0.5461"},
      {"measurement": "TRYPSIN, normalised activity (Ext. 1a)", "setting": "[1]; log [compound (μM)] -0.1072, listed as H20", "result": "1.2914 and 1.0218"},
      {"measurement": "TRYPSIN, normalised activity (Ext. 1a)", "setting": "[1]; log [compound (μM)] -0.4082, listed as H20", "result": "1.0017 and 0.9864"},
      {"measurement": "TRYPSIN, normalised activity (Ext. 1a)", "setting": "[1]; log [compound (μM)] -0.7093, listed as H20", "result": "0.9551 and 0.9457"},
      {"measurement": "TRYPSIN, normalised activity (Ext. 1a)", "setting": "[1]; log [compound (μM)] -1.7100, normalisation point", "result": 1.0000},
      {"measurement": "Activity (% control)", "setting": "[2]", "result": 89, "unit": "% control"},
      {"measurement": "Activity (% control)", "setting": "[3]", "result": "116 % control and 121 % control"},
      {"measurement": "Activity (% control)", "setting": "[4]", "result": "97 % control and 96 % control"},
      {"measurement": "Activity (% control)", "setting": "[5]", "result": "96 % control and 99 % control"},
      {"measurement": "Activity (% control)", "setting": "[6]", "result": "104 % control and 112 % control"},
      {"measurement": "ISG expression (ISG15, IFIT1, IFIT2, IFITM1, CXCL10)", "setting": "[7]", "result": "a reduction in ISG expression was not observed"}
    ]}
  ]
}
